Assay results from patent publication US7232673B2, “Antimicrobial protein from Lyophyllum shimeji” (Japan Tobacco Inc., priority 1999, dated 2007).

Key:
Assay in all cases: Pyranose oxidase activity (properties of pyranose oxidase, method of Nishimura et al. 1996)
[1] = molecular target: T1, Lyophyllum shimeji antimicrobial protein (pyranose oxidase), native, purified MonoQ fractions Nos. 42-44 containing the 65 kDa + 70 kDa proteins, SEQ ID NO:2 (Lyophyllum shimeji, UniProt Q75ZP8); format: biochemical; conditions: result in words
T1 construct: MonoQ fractions 42-44 holding the 70 kDa precursor (1-618) and 65 kDa mature form (76-618), both from a single gene; not the His-tagged E. coli product
T1 sequence (Q75ZP8 76-618): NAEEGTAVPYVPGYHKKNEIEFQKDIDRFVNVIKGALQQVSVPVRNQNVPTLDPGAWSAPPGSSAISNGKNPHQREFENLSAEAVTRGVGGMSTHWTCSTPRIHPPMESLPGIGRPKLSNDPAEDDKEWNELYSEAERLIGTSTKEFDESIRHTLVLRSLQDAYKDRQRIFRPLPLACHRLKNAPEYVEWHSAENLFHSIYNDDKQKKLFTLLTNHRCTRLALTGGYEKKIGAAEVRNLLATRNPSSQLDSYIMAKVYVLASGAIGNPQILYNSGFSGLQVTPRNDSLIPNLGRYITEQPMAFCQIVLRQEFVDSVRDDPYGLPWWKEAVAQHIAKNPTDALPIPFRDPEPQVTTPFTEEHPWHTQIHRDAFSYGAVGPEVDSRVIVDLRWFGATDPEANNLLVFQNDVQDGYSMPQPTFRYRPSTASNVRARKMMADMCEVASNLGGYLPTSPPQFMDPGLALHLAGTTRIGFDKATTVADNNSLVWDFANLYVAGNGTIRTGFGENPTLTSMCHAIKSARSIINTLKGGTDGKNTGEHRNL
Protocol: (§1) The amino acid sequences thus determined were searched for in a data base. […] Thus, the pyranose oxidase activity of each MonoQ fraction was measured in accordance with the method of Nishimura et al. (1996). […] Accordingly, it is estimated that the antimicrobial activity would be derived from hydrogen peroxide formed during the oxidation of glucose in the medium by this enzyme. Next, the fractions containing both of the 65 kDa and 70 kDa proteins (FIG. 2 Nos. 42–44) were exclusively concentrated and properties of pyranose oxidase were analyzed. […] The amount of the enzyme proteins (65 kDa+70 kDa) was determined by SDS-PAGE silver staining.

[2] = substrate: OC[C@H]1OC[C@H](O)[C@@H](O)[C@@H]1O; format: biochemical, Lyophyllum shimeji; conditions: other: native L. shimeji enzyme protein (65 kDa+70 kDa), table footnote (activity unit): pH 7.0, 37° C.
Protocol: as §1

[3] = substrate: OC[C@H]1OC(O)[C@H](O)[C@@H](O)[C@@H]1O; format: biochemical, Lyophyllum shimeji; conditions: other: native L. shimeji enzyme protein (65 kDa+70 kDa), table footnote (activity unit): pH 7.0, 37° C.
Protocol: as §1

OC[C@H]1OC[C@H](O)[C@@H](O)[C@@H]1O [1,5-Anhydroglucitol]
Km values to 1,5-anhydroglucitol [1]: low

OC[C@H]1OC(O)[C@H](O)[C@@H](O)[C@@H]1O (stereo partly shown) [Glucose]
Km values to glucose [1]: low

B1: Lyophyllum shimeji antimicrobial protein (pyranose oxidase), native, purified MonoQ fractions Nos. 42-44 containing the 65 kDa + 70 kDa proteins, SEQ ID NO:2 … (protein)
chain: T1 sequence (Q75ZP8 76-618)
notes: MonoQ fractions 42-44 holding the 70 kDa precursor (1-618) and 65 kDa mature form (76-618), both from a single gene; not the His-tagged E. coli product
Km [2]: 6.5 mM | Km [3]: 0.50 mM
